From article PMC12809313, “New Sulfonate-Semicarbazone Hybrid Molecules: Synthesis, Theoretical Evaluations, Molecular Simulations, and Butyrylcholinesterase Inhibition Activity” (ACS Omega, 2025)
Values joined by “and” are separate entries in the source; they are usually repeats but may differ in a detail not shown here. Identical values can stand only once.

Columns and labels:
[1] = target: T1, butyrylcholinesterase (BChE) (Homo sapiens, UniProt P06276); assay: In vitro BChE inhibition (Ellman's technique); type: biochemical; conditions: Ellman assay, five concentrations, triplicate
Procedure: The semicarbazone derivatives were evaluated for their inhibitory activities against human acetylcholinesterase (AChE) and butyrylcholinesterase (BChE) enzymes using standard in vitro assays. The Ellman’s technique that was tailored to our lab’s needs was used to measure the activity of the cholinesterase enzyme. The test chemicals were first dissolved in DMSO at a concentration of 1 mg/mL to create stock solutions, which were then diluted 10 times with distilled water for use in the inhibition tests. Each compound’s inhibitory effects on the enzymes were evaluated at five different concentrations. Fifty microliters of distilled water, 50 μL of 0.1 M Tris–HCl buffer (pH 8.0), 15 μL of 0.015 M […] (as substrates), 30 μL of 0.06 M DTNB (5,5′-dithiobis(2-nitrobenzoic acid)), and 10 μL of enzyme solution made up the reaction mixture for the AChE and BChE tests. The absorbance of the blank solutions was measured before the substrate was added. The substrate was then added to each well to start the enzymatic reaction. Enzyme activity was kinetically assessed at 408 nm by using a microplate reader. Each inhibition measurement was repeated three times, and average values were taken when measuring the inhibitory potentials of the molecules. The IC50 values, indicating each compound’s inhibitory strength against cholinesterase, were determined by plotting percent activity versus inhibitor concentration.

[2] = target: T1, butyrylcholinesterase (BChE); assay: BChE enzyme kinetics (Lineweaver–Burk plots); type: biochemical; conditions: for inhibition type: Lineweaver–Burk plots; for Ki: substrate butyrylthiocholine iodide, Lineweaver–Burk, read-out: inhibition constant (K i)
Procedure: The enzymatic activity of BChE was evaluated at various concentrations of the substrate butyrylthiocholine iodide (BTChI) in the presence of fixed concentrations of each inhibitor. The resulting data were analyzed by Lineweaver–Burk double reciprocal plots to determine kinetic parameters such as K m, V max, and the inhibition type (Figure ).
Different concentrations of butyrylthiocholine iodide were used in the presence of three concentrations of each compound. Lineweaver–Burk plots were constructed by plotting the reciprocal of reaction velocity (1/V) against the reciprocal of substrate concentration (1/[S]). Based on these plots, the inhibition types were determined. The inhibition constant (K i) was calculated using the following equation (eq ). 2 slope=Km/Vmax×(1+[I]/Ki)

T1 sequence (P06276 29-602): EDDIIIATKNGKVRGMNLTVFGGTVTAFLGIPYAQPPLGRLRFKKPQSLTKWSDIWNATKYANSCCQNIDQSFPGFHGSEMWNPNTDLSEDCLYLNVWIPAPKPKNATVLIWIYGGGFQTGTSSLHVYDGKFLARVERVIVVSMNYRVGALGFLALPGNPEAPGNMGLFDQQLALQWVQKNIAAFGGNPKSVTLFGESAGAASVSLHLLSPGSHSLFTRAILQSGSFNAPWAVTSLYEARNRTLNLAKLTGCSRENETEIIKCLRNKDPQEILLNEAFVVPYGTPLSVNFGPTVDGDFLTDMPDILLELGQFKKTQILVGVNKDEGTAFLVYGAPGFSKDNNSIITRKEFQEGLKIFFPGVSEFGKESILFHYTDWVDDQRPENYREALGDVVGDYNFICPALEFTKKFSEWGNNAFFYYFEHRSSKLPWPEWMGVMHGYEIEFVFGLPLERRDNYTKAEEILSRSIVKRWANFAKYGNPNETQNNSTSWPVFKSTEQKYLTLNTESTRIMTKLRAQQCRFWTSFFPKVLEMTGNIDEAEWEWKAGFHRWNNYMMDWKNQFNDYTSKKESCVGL

In the case of `NC(=O)N/N=C/c1ccc(OS(=O)(=O)c2ccccc2)cc1` [Compound 1, 4-[(E)-(2-Carbamoylhydrazinylidene)methyl]phenyl Benzenesulfonate], the IC50 [1] is reported as 139 µM.

With `NC(=O)N/N=C/c1ccc(OS(=O)(=O)c2ccc(F)cc2)cc1` [Compound 2, 4-[(E)-(2-Carbamoylhydrazinylidene)methyl]phenyl 4-Fluorobenzene-1-sulfonate] the IC50 [1] was 161 µM.

`NC(=O)N/N=C/c1ccc(OS(=O)(=O)c2ccc(Cl)cc2)cc1` [Compound 3, 4-[(E)-(2-carbamoylhydrazinylidene)methyl]phenyl 4-Chlorobenzene-1-sulfonate] gave an IC50 [1] of 141 µM.

Molecule `NC(=O)N/N=C/c1ccc(OS(=O)(=O)c2ccc(Br)cc2)cc1` [Compound 4, 4-[(E)-(2-Carbamoylhydrazinylidene)methyl]phenyl 4-Bromobenzene-1-sulfonate] has an IC50 [1] of 177 µM.

Work on `NC(=O)N/N=C/c1ccc(OS(=O)(=O)c2ccc(I)cc2)cc1` [Compound 5, 4-[(E)-(2-Carbamoylhydrazinylidene)methyl]phenyl 4-Iodobenzene-1-sulfonate] yielded an IC50 [1] of 173 µM.

Molecule `Cc1ccc(S(=O)(=O)Oc2ccc(/C=N/NC(N)=O)cc2)cc1` [Compound 6, 4-[(E)-(2-Carbamoylhydrazinylidene)methyl]phenyl 4-Methylbenzene-1-sulfonate] has an IC50 [1] of 178 µM.

Work on `COc1ccc(S(=O)(=O)Oc2ccc(/C=N/NC(N)=O)cc2)cc1` [Compound 7, 4-[(E)-(2-Carbamoylhydrazinylidene)methyl]phenyl 4-Methoxybenzene-1-sulfonate] yielded an IC50 [1] of 136 µM.

For `NC(=O)N/N=C/c1ccc(OS(=O)(=O)c2ccccc2C(F)(F)F)cc1` [Compound 8, 4-[(E)-(2-Carbamoylhydrazinylidene)methyl]phenyl 2-(Trifluoromethyl)benzene-1-sulfonate], the IC50 [1] was 172 µM.

`NC(=O)N/N=C/c1ccc(OS(=O)(=O)c2cccc(C(F)(F)F)c2)cc1` [Compound 9, 4-[(E)-(2-Carbamoylhydrazinylidene)methyl]phenyl-3-(trifluoromethyl)benzene-1-sulfonate] showed an IC50 [1] of 147 µM.

In the case of `NC(=O)N/N=C/c1ccc(OS(=O)(=O)c2ccc(C(F)(F)F)cc2)cc1` [Compound 10, 4-[(E)-(2-Carbamoylhydrazinylidene)methyl]phenyl-4-(trifluoromethyl)benzene-1-sulfonate], the IC50 [1] is reported as 139 µM.

With `NC(=O)N/N=C/c1ccc(OS(=O)(=O)c2cc(C(F)(F)F)cc(C(F)(F)F)c2)cc1` [Compound 11, 4-[(E)-(2-Carbamoylhydrazinylidene)methyl]phenyl 3,5-Bis(trifluoromethyl)benzene-1-sulfonate] the “BChE IC50” value [1] was “stronger inhibition than the reference drug pyridostigmine bromide” and the IC50 [1] was < 130 µM and 114 µM.

`NC(=O)N/N=C/c1ccc(OS(=O)(=O)c2ccccc2OC(F)(F)F)cc1` [Compound 12, 4-[(E)-(2-Carbamoylhydrazinylidene)methyl]phenyl 2-(Trifluoromethoxy)benzene-1-sulfonate] was tested, and the “BChE IC50” value [1] was “stronger inhibition than the reference drug pyridostigmine bromide”, the IC50 [1] was 61.9 µM and < 130 µM and the inhibition type [2] was “reversible competitive inhibitors”. The Ki [2] was 11.9 ± 3.31 µM.

`NC(=O)N/N=C/c1ccc(OS(=O)(=O)c2cccc(OC(F)(F)F)c2)cc1` [Compound 13, 4-[(E)-(2-Carbamoylhydrazinylidene)methyl]phenyl 3-(Trifluoromethoxy)benzene-1-sulfonate] was tested, and the “BChE IC50” value [1] was “stronger inhibition than the reference drug pyridostigmine bromide” and the IC50 [1] was < 130 µM and 116 µM.

With `NC(=O)N/N=C/c1ccc(OS(=O)(=O)c2ccc(OC(F)(F)F)cc2)cc1` [Compound 14, 4-[(E)-(2-Carbamoylhydrazinylidene)methyl]phenyl 4-(Trifluoromethoxy)benzene-1-sulfonate] the “BChE IC50” value [1] was “stronger inhibition than the reference drug pyridostigmine bromide” and the IC50 [1] was < 130 µM and 130 µM.

With `NC(=O)N/N=C/c1ccc(OS(=O)(=O)c2ccc([N+](=O)[O-])cc2)cc1` [Compound 15, 4-[(E)-(2-Carbamoylhydrazinylidene)methyl]phenyl 4-Nitrobenzene-1-sulfonate] the IC50 [1] was 347 µM.

In the case of `NC(=O)N/N=C/c1ccc(OS(=O)(=O)c2ccc(-c3ccccc3)cc2)cc1` [Compound 16, 4-[(E)-(2-Carbamoylhydrazinylidene)methyl]phenyl [1,1′-Biphenyl]-4-sulfonate], the “BChE IC50” value [1] is reported as “stronger inhibition than the reference drug pyridostigmine bromide” and the IC50 [1] is reported as < 130 µM and 112 µM.

For `NC(=O)N/N=C/c1ccc(OS(=O)(=O)c2cccc3ccccc23)cc1` [Compound 17, 4-[(E)-(2-Carbamoylhydrazinylidene)methyl]phenyl Naphthalene-1-sulfonate], the “BChE IC50” value [1] was “stronger inhibition than the reference drug pyridostigmine bromide”, the IC50 [1] was 77 µM and < 130 µM and the inhibition type [2] was “reversible competitive inhibitors”. It also gave a Ki [2] of 9.08 ± 3.51 µM.

With `NC(=O)N/N=C/c1ccc(OS(=O)(=O)c2ccc3ccccc3c2)cc1` [Compound 18, 4-[(E)-(2-Carbamoylhydrazinylidene)methyl]phenyl Naphthalene-2-sulfonate] the “BChE IC50” value [1] was “stronger inhibition than the reference drug pyridostigmine bromide”, the IC50 [1] was 93.7 µM and < 130 µM and the inhibition type [2] was “reversible competitive inhibitors”. For the same molecule, the Ki [2] was 5.49 ± 0.33 µM.
